Starred links: 1 amine or outer side, 2 acyl side, 3 side chain; linkers in the order of their positions; H or OH if unused. Non-standard residues stand in square brackets, D forms with d. Residues, ends and D or L forms follow the SMILES beside them. *: point of attachment. X1 = CC(N[*:1])C(=O)C(F)(F)C(=O)[*:2]; Boc = CC(C)(C)OC(=O)*
How the values were obtained:
[1] = system: BPAE co-culture clones (cortical stem cells); experiment: Inhibition of Notch activation in endothelial co-cultured cortical stem cell clones; assay type: cell-based, mouse; settings: BPAE co-culture clones treated for 6 hours, 50 μM, vs DMSO vehicle
Method: γ-secretase inhibitor II (Calbiochem, 50 μM) in DMSO was added to co-cultured cells after 4 days for 6 hours. The same amount of DMSO was used as vehicle control. The cells were then fixed and stained for β-tubulin III and double-labelled for Nestin or β-catenin, and the stained cells were quantified.

[2] = system: cortical stem cell clones; experiment: Clonal growth of cortical stem cells with added soluble growth factors (without feeder cells); assay type: cell-based, mouse; settings: for duplication of the effect of endothelial co-culture on clonal growth: factor added at 10-50 ng/ml to serum-free medium with FGF2, no feeder cells
Method: Embryonic cerebral cortices and adult SVZ were dissected and dissociated as described (18-20). Single cells were plated into poly-l-lysine-coated 6-well plates (Costar) at clonal density (2000-4000 cells/well) and cultured in basal serum-free medium consisting of DMEM, B27, N2, NAC and 10 ng/ml FGF2 (19,20). To test the effects of soluble growth factors (PDGF, CNTF, TGFβ, IGF1, IL1, IL6, G-CSF, M-CSF, GM-CSF, LIF, BDNF, Steel factor, VEGF or EGF), each factor was added to serum-free medium with FGF2 at a range of 10-50 ng/ml, and clonal growth (cell number and generation of neurons and glia) was assessed (without co-cultured feeder cells). LIF and VEGF were also tested in combination, each added at 10 ng/ml into serum-free medium, with and without FGF2.

CCC(C)C(NC(=O)C(NC(=O)OC(C)(C)C)C(C)C)C(=O)NC(C)C(=O)C(F)(F)C(=O)NC(C(=O)NC(C(=O)OC)C(C)CC)C(C)C (centres unmarked) [γ-secretase inhibitor II] (Boc-VI[X1]VI-OMe; configuration not given here)
β-catenin staining [1]: significantly decreased
β-tubulin-III staining [1]: significantly increased

EGF: soluble growth factor (NSDSECPLSHDGYCLHDGVCMYIEALDKYACNCVVGYIGERCQYRDLKWWELR; Epidermal growth factor; UniProt P01133 971-1023, looked up)
duplication of the effect of endothelial co-culture on clonal growth [2]: none duplicated the result we see from endothelial co-cultures

FGF2: soluble growth factor in basal serum-free medium
neural stem cell proliferation ([2]; FGF2 alone): promotes neural stem cell proliferation
neural stem cell self-renewal ([2]; FGF2 alone): cannot alone maintain their self-renewal
duplication of the effect of endothelial co-culture on clonal growth [2]: none duplicated the result we see from endothelial co-cultures

GM-CSF: soluble growth factor
duplication of the effect of endothelial co-culture on clonal growth [2]: none duplicated the result we see from endothelial co-cultures

IGF1: soluble growth factor
duplication of the effect of endothelial co-culture on clonal growth [2]: none duplicated the result we see from endothelial co-cultures

IL6: soluble growth factor
duplication of the effect of endothelial co-culture on clonal growth [2]: none duplicated the result we see from endothelial co-cultures

LIF: soluble growth factor
duplication of the effect of endothelial co-culture on clonal growth [2]: none duplicated the result we see from endothelial co-cultures

PDGF
duplication of the effect of endothelial co-culture on clonal growth [2]: none duplicated the result we see from endothelial co-cultures

Steel factor: soluble growth factor
duplication of the effect of endothelial co-culture on clonal growth [2]: none duplicated the result we see from endothelial co-cultures

TGFβ
duplication of the effect of endothelial co-culture on clonal growth [2]: none duplicated the result we see from endothelial co-cultures

VEGF
duplication of the effect of endothelial co-culture on clonal growth [2]: Neither factor, alone or in combination, duplicated the effect of endothelial factors
